PubChem BioAssay AID504934 (The Scripps Research Institute Molecular Screening Center, 2011)
Calls of active or inactive are those of the source. The rule behind the calls is not given here.

Key:
Assay in all cases: PubChem AID 504934
[1] = target: Nuclear receptor ROR-gamma (Homo sapiens) (UniProt P51449); details: nuclear receptor panel Gal4 luciferase reporter, RORg, at 10 µM
HNF4g = details: nuclear receptor panel Gal4 luciferase reporter, at 10 µM
RARg = details: nuclear receptor panel Gal4 luciferase reporter, at 10 µM
RORb = details: nuclear receptor panel Gal4 luciferase reporter, at 10 µM
LXRa = details: nuclear receptor panel Gal4 luciferase reporter, at 10 µM
PNR = details: nuclear receptor panel Gal4 luciferase reporter, at 10 µM
VDR = details: nuclear receptor panel Gal4 luciferase reporter, at 10 µM
[2] = target: Estrogen receptor (Homo sapiens) (UniProt P03372); details: nuclear receptor panel Gal4 luciferase reporter, ESR1 (ESRA; Era), at 10 µM
Coup-TF1 = details: nuclear receptor panel Gal4 luciferase reporter, at 10 µM
[3] = target: Nuclear receptor subfamily 1 group I member 2 (Homo sapiens) (UniProt O75469); details: nuclear receptor panel Gal4 luciferase reporter, PXR, at 10 µM
[4] = target: Retinoic acid receptor RXR-alpha (Homo sapiens) (UniProt P19793); details: nuclear receptor panel Gal4 luciferase reporter, RXRa, at 10 µM
Rev-erb a = details: nuclear receptor panel Gal4 luciferase reporter, at 10 µM
Nurr1 = details: nuclear receptor panel Gal4 luciferase reporter, at 10 µM
[5] = target: Peroxisome proliferator-activated receptor gamma (Homo sapiens) (UniProt P37231); details: nuclear receptor panel Gal4 luciferase reporter, PPARg, at 10 µM
ERRa = details: nuclear receptor panel Gal4 luciferase reporter, at 10 µM
CAR = details: nuclear receptor panel Gal4 luciferase reporter, at 10 µM
VP16 Control Plasmid = details: nuclear receptor panel Gal4 luciferase reporter, at 10 µM
[6] = target: Nuclear receptor ROR-alpha (Homo sapiens) (UniProt P35398); details: nuclear receptor panel Gal4 luciferase reporter, RORa, at 10 µM
TR4 = details: nuclear receptor panel Gal4 luciferase reporter, at 10 µM
MR = details: nuclear receptor panel Gal4 luciferase reporter, at 10 µM
[7] = target: Retinoic acid receptor RXR-beta (Homo sapiens) (UniProt P28702); details: nuclear receptor panel Gal4 luciferase reporter, RXRb, at 10 µM
AR = details: nuclear receptor panel Gal4 luciferase reporter, at 10 µM
[8] = target: Retinoic acid receptor alpha (Homo sapiens) (UniProt P10276); details: nuclear receptor panel Gal4 luciferase reporter, RARa, at 10 µM
Sequence of Retinoic acid receptor alpha (Homo sapiens) (P10276 whole entry, looked up, the tested form may be a part): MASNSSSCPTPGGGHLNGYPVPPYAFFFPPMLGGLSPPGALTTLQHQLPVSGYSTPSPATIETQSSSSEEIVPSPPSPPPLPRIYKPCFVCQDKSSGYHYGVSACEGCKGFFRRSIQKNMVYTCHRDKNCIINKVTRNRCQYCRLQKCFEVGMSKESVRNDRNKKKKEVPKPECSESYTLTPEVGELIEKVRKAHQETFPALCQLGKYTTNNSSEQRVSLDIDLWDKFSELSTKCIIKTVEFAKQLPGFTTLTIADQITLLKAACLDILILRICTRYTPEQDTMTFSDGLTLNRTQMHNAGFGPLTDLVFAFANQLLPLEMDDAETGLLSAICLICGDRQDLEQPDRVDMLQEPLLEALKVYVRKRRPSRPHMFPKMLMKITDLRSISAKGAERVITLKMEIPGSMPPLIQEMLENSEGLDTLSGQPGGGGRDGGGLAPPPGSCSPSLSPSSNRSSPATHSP

Sequence of Estrogen receptor (Homo sapiens) (P03372 whole entry, looked up, the tested form may be a part): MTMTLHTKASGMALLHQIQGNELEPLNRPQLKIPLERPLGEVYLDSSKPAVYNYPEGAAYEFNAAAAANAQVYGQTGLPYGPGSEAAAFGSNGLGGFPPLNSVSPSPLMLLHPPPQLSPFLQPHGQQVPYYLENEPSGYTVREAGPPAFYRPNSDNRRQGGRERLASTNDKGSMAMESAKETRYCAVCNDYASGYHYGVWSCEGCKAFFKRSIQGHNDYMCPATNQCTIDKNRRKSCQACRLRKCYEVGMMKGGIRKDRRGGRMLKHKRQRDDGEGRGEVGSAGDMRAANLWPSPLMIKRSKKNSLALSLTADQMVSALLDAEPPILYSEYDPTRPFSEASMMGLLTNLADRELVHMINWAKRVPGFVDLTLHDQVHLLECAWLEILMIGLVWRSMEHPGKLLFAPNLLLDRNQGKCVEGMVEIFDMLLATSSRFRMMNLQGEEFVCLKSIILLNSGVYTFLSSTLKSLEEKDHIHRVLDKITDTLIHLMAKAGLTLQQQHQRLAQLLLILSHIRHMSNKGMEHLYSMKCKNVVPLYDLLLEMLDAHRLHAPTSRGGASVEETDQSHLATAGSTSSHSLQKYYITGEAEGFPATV
Sequence of Retinoic acid receptor RXR-alpha (Homo sapiens) (P19793 whole entry, looked up, the tested form may be a part): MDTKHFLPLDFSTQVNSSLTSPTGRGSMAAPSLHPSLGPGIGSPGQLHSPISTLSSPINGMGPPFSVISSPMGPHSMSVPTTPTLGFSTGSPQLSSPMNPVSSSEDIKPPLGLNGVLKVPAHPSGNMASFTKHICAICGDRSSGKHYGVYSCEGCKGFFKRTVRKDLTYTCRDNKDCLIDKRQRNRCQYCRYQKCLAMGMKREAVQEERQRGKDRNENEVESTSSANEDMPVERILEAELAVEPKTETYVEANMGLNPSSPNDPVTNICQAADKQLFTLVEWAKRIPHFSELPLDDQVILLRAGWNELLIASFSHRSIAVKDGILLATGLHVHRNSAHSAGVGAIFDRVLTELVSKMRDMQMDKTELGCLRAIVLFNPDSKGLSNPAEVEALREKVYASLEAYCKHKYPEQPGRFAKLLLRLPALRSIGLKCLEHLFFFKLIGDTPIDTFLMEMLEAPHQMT
Sequence of Nuclear receptor ROR-gamma (Homo sapiens) (P51449 whole entry, looked up, the tested form may be a part): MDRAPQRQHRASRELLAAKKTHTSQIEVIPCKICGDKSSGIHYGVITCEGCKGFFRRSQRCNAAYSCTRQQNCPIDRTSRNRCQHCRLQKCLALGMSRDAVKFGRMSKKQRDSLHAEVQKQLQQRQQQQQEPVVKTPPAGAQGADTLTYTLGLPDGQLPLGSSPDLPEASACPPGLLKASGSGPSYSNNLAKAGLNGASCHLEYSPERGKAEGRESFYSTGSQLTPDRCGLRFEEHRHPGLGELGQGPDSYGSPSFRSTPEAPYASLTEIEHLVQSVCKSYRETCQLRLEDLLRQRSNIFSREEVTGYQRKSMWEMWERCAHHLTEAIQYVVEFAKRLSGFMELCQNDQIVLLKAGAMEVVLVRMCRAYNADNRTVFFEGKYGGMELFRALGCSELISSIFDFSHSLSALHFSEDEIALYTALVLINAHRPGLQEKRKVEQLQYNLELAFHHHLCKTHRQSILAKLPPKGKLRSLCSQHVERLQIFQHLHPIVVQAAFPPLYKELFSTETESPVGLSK
Sequence of Retinoic acid receptor RXR-beta (Homo sapiens) (P28702 whole entry, looked up, the tested form may be a part): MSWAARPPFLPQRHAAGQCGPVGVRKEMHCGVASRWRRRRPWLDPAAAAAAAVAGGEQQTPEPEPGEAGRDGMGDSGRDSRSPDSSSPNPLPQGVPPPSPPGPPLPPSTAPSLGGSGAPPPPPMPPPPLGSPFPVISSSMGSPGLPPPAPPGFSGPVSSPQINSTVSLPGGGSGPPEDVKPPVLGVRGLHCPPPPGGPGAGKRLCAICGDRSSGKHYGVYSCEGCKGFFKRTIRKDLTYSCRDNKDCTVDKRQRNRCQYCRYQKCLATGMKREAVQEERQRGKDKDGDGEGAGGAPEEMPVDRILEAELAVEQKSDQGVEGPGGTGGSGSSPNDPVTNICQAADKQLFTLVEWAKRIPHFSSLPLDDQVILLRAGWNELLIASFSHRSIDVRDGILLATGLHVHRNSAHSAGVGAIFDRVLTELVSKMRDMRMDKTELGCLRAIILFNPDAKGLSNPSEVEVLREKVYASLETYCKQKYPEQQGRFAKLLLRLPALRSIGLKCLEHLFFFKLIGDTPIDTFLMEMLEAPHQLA
Sequence of Nuclear receptor ROR-alpha (Homo sapiens) (P35398 whole entry, looked up, the tested form may be a part): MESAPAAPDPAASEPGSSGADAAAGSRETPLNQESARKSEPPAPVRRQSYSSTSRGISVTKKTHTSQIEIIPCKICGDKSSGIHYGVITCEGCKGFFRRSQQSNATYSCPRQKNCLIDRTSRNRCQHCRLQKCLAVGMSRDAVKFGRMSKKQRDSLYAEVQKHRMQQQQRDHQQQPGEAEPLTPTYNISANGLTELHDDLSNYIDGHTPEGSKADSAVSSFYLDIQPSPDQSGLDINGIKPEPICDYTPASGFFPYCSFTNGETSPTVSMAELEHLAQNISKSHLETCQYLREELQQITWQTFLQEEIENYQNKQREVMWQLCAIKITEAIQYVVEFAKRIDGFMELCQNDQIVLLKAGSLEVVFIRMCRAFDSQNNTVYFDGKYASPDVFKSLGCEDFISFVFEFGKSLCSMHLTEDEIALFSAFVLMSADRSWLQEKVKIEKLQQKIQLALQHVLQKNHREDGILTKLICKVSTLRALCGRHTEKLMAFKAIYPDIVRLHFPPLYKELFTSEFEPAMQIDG
Sequence of Peroxisome proliferator-activated receptor gamma (Homo sapiens) (P37231 whole entry, looked up, the tested form may be a part): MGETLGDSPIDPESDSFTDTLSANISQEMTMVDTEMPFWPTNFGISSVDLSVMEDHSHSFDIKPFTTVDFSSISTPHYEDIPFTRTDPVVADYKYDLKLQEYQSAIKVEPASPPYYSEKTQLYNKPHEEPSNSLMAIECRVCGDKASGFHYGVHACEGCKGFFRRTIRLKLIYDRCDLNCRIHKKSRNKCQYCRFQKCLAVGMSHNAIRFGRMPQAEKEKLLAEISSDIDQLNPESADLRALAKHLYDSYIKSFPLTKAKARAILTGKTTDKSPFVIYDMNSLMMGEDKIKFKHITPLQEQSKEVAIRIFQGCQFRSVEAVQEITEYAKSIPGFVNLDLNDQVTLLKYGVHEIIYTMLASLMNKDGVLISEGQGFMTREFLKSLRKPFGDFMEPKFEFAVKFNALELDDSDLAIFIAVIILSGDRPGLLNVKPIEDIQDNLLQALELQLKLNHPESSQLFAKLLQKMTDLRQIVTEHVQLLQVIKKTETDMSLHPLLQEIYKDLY
Sequence of Nuclear receptor subfamily 1 group I member 2 (Homo sapiens) (O75469 whole entry, looked up, the tested form may be a part): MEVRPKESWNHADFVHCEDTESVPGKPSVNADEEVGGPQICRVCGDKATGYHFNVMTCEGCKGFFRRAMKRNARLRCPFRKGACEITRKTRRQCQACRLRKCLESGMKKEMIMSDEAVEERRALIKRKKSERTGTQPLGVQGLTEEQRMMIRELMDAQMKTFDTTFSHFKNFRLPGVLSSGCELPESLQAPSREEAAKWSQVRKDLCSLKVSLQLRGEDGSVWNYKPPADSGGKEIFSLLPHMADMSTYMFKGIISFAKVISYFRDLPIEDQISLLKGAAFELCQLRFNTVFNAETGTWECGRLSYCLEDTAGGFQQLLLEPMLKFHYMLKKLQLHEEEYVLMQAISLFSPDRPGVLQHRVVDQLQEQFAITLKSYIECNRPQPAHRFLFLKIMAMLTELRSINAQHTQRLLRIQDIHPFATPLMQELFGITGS

fold change [1]: 0.52 | fold change (HNF4g): 0.44 | fold change (RARg): 0.56 | fold change (RORb): 0.82 (inactive) | fold change (LXRa): 1.27 | fold change (PNR): 0.72 | fold change (VDR): 0.83 (inactive) | fold change [2]: 0.61 | fold change (Coup-TF1): 0.72 | fold change [3]: 1.26 | fold change [4]: 0.75 | fold change (Rev-erb a): 0.84 (inactive) | fold change (Nurr1): 0.79 | fold change [5]: 0.86 (inactive) | fold change (ERRa): 1.34 | fold change (CAR): 0.38 | fold change (VP16 Control Plasmid): 0.82 (inactive) | fold change [6]: 1 (inactive) | fold change (TR4): 0.8 | fold change (MR): 1.41 | fold change [7]: 0.78 | fold change (AR): 0.91 (inactive) | fold change [8]: 0.47
Compound: O=c1cc(N2CCN(c3cccc(Cl)c3)CC2)[nH]c(=O)n1C1CCCCC1
